Data on 15 molecules can be found in patent publication US9242993B2, “Morpholino substituted bicyclic pyrimidine urea or carbamate derivatives as mTOR inhibitors” (CELLZOME LIMITED, priority 2011, dated 2016).

The target of assay [1] is DNA-dependent protein kinase (DNA-PK) (Homo sapiens, UniProt P78527). The experiment in a line: biochemical.
The next assay has as its target mTOR (Homo sapiens, UniProt P42345). The experiment in a line: biochemical.
Assay [2] concerns S6RP serine-240/244 phosphorylation. The experiment in a line: In vitro phospho-S6 cellular assay. The class given is cell-based. The following applies: Homo sapiens; HEK293T/17 cells, 2 hours; read-out: pS6 inhibition value (IC50), activity level. From the text:
Activation of mTOR signaling results in phosphorylation of several downstream targets. In cells, mTOR exists in two different protein complexes. The mTOR Complex-1 (mTORC1) phosphorylates and activates S6 Kinase 1 (S6K1) and S6 Kinase 2 (S6K2) (also known as p70S6K) which then phosphorylate S6 Ribosomal Protein (S6RP) (also known as RPS6)3. S6RP is phosphorylated on serine 235, serine 236, serine 240 and serine 244 by both pS6K1 and pS6K2. The mTOR Complex-2 (mTORC2) phosphorylates AKT on serine 473 which activates the AKT signaling pathway.
The assay measures a test compound's inhibition of S6RP serine-240/244 phosphorylation and inhibition of Akt serine-473 phosphorylation in human embryonic kidney derived HEK293T/17 cells (ATCC CRL-11268).
The HEK293T/17 cell line is maintained in DMEM media (Invitrogen catalogue number 41965-039) supplemented with 10% FCS at 37° C. in a 5% CO2 humidified incubator.
Cells are seeded in 96-well plates at 40,000 cells/well (pS6RP S240/244 assay) or 80,000 cells/well (pAkt S473 assay) in 90 μl growth media (DMEM, 2% FCS). Plates are incubated for 1 hour in a humidified incubator to allow the cells to adhere. Cells are treated with 8 concentrations of test compounds or DMSO alone for controls (final DMSO concentration 0.1%) and incubated at 37° C. for 2 hours. Then 20 μl of 5× concentrated lysis buffer (750 mM NaCl, 100 mM Tris pH7.4, 5 mM ADTA, 5 mM EGTA, 5% Triton X-100) is added, plates are sealed and incubated for 15 minutes at 4° C. with gentle shaking. After cell lysis, 25 μl cell lysate is transferred to a MesoScale plate coated with an antibody to pS6RP Ser240/244 (MesoScale Discovery K150DGD-3) or an antibody to pAkt Ser 473 (MesoScale Discovery K151DGD-3). Plates have been blocked before by incubation with 150 μl MesoScale Discovery Blocking Solution-A for 1 hour at room temperature followed by washing with 150 μl 1× Tris wash buffer per well. After the transfer of the cell lysate to the MSD plate, the pS6RP (or pAkt) protein is captured on the coated antibody by incubation at room temperature for 1 hour with gentle shaking. After the capture step the plate is washed three times with 150 μl of 1× Tris wash buffer per well. Then 25 μl detection antibody conjugated with a Sulfo-Tag is added and incubated for 1 hour at room temperature with gentle shaking. Subsequently the antibody solution is removed and the plate is washed 3 times with 150 μl 1× Tris wash buffer per well and 150 μl Read buffer is added. The plates are analysed on a MSD 2400 Plate Reader (MesoScale Discovery). Data analysis is performed using nonlinear regression for a sigmoidal dose-response with a variable slope.

In assay [3] the test system is IFNγ release in whole blood. Description: In vitro human whole blood assay (IFNγ release). The class given is cell-based. The following applies: αCD3/αCD28 and IL-2 stimulation, 18 hours, read-out: WB inhibition value (pIC50) (converted). Here is the method:
This assay measures IFNγ release in whole blood after αCD3/αCD28 and IL-2 treatment. The whole blood contains circulating T lymphocytes; αCD3/αCD28 stimulation mimics antigen receptor signalling, resulting in epigenetic changes to the IFNG gene locus, such that when IL-2 is added, IFNγ is produced.
Human whole blood, with Na-heparin as the anticoagulant, is obtained from Clinical Trials Laboratory Services. Blood is diluted 1.4 times with RPMI 1640 (Lonza, BE12-167F) and 175 μl/well is distributed in a low evaporation 96-well plates (Falcon, BD Labware, 353072). Blood is treated with 10 concentrations of test compounds or DMSO alone for controls (final DMSO concentration 0.2%) and incubated at 37° C. for 1 hour. Blood is then stimulated with 1 μg/ml αCD3 (R&D Systems, MAB100), 1 μg/ml αCD28 (BD Pharmingen, 555725) and IL-2 at 10 ng/ml (Peprotech, 200-02). Blood is then left to incubate at 37° C. for 18 hours. After, plates are spun at 250 g for 5 minutes to pellet blood cells and 25 μl of plasma is transferred to a MesoScale plate coated with an antibody to IFNγ (MesoScale Discovery K151AEC-2) containing 25 μl/well MesoScale Discovery Blocking Solution-2. Plates have been blocked by incubating with 25 μl/well MesoScale Discovery Blocking Solution-2 for 30 minutes at room temperature. After the transfer of sera to the MSD plate, the IFNγ protein is captured on the coated antibody by incubation at room temperature for 2 hour with gentle shaking. After the capture step the plate is washed three times with 150 μl/well of 1×PBS-Tween wash buffer and 25 μl/well detection antibody conjugated with a Sulfo-Tag is added and incubated for 2 hours at room temperature with gentle shaking. Subsequently the antibody solution is removed and the plate is washed 3 times with 150 μl/well 1×PBS-Tween wash buffer and 150 μl/well MesoScale Discovery Read buffer is added. The plates are analysed on a MSD 2400 Plate Reader (MesoScale Discovery). Data analysis is performed using nonlinear regression for a sigmoidal dose-response with a variable slope.

DNA-dependent protein kinase (DNA-PK), sequence (P78527 whole entry): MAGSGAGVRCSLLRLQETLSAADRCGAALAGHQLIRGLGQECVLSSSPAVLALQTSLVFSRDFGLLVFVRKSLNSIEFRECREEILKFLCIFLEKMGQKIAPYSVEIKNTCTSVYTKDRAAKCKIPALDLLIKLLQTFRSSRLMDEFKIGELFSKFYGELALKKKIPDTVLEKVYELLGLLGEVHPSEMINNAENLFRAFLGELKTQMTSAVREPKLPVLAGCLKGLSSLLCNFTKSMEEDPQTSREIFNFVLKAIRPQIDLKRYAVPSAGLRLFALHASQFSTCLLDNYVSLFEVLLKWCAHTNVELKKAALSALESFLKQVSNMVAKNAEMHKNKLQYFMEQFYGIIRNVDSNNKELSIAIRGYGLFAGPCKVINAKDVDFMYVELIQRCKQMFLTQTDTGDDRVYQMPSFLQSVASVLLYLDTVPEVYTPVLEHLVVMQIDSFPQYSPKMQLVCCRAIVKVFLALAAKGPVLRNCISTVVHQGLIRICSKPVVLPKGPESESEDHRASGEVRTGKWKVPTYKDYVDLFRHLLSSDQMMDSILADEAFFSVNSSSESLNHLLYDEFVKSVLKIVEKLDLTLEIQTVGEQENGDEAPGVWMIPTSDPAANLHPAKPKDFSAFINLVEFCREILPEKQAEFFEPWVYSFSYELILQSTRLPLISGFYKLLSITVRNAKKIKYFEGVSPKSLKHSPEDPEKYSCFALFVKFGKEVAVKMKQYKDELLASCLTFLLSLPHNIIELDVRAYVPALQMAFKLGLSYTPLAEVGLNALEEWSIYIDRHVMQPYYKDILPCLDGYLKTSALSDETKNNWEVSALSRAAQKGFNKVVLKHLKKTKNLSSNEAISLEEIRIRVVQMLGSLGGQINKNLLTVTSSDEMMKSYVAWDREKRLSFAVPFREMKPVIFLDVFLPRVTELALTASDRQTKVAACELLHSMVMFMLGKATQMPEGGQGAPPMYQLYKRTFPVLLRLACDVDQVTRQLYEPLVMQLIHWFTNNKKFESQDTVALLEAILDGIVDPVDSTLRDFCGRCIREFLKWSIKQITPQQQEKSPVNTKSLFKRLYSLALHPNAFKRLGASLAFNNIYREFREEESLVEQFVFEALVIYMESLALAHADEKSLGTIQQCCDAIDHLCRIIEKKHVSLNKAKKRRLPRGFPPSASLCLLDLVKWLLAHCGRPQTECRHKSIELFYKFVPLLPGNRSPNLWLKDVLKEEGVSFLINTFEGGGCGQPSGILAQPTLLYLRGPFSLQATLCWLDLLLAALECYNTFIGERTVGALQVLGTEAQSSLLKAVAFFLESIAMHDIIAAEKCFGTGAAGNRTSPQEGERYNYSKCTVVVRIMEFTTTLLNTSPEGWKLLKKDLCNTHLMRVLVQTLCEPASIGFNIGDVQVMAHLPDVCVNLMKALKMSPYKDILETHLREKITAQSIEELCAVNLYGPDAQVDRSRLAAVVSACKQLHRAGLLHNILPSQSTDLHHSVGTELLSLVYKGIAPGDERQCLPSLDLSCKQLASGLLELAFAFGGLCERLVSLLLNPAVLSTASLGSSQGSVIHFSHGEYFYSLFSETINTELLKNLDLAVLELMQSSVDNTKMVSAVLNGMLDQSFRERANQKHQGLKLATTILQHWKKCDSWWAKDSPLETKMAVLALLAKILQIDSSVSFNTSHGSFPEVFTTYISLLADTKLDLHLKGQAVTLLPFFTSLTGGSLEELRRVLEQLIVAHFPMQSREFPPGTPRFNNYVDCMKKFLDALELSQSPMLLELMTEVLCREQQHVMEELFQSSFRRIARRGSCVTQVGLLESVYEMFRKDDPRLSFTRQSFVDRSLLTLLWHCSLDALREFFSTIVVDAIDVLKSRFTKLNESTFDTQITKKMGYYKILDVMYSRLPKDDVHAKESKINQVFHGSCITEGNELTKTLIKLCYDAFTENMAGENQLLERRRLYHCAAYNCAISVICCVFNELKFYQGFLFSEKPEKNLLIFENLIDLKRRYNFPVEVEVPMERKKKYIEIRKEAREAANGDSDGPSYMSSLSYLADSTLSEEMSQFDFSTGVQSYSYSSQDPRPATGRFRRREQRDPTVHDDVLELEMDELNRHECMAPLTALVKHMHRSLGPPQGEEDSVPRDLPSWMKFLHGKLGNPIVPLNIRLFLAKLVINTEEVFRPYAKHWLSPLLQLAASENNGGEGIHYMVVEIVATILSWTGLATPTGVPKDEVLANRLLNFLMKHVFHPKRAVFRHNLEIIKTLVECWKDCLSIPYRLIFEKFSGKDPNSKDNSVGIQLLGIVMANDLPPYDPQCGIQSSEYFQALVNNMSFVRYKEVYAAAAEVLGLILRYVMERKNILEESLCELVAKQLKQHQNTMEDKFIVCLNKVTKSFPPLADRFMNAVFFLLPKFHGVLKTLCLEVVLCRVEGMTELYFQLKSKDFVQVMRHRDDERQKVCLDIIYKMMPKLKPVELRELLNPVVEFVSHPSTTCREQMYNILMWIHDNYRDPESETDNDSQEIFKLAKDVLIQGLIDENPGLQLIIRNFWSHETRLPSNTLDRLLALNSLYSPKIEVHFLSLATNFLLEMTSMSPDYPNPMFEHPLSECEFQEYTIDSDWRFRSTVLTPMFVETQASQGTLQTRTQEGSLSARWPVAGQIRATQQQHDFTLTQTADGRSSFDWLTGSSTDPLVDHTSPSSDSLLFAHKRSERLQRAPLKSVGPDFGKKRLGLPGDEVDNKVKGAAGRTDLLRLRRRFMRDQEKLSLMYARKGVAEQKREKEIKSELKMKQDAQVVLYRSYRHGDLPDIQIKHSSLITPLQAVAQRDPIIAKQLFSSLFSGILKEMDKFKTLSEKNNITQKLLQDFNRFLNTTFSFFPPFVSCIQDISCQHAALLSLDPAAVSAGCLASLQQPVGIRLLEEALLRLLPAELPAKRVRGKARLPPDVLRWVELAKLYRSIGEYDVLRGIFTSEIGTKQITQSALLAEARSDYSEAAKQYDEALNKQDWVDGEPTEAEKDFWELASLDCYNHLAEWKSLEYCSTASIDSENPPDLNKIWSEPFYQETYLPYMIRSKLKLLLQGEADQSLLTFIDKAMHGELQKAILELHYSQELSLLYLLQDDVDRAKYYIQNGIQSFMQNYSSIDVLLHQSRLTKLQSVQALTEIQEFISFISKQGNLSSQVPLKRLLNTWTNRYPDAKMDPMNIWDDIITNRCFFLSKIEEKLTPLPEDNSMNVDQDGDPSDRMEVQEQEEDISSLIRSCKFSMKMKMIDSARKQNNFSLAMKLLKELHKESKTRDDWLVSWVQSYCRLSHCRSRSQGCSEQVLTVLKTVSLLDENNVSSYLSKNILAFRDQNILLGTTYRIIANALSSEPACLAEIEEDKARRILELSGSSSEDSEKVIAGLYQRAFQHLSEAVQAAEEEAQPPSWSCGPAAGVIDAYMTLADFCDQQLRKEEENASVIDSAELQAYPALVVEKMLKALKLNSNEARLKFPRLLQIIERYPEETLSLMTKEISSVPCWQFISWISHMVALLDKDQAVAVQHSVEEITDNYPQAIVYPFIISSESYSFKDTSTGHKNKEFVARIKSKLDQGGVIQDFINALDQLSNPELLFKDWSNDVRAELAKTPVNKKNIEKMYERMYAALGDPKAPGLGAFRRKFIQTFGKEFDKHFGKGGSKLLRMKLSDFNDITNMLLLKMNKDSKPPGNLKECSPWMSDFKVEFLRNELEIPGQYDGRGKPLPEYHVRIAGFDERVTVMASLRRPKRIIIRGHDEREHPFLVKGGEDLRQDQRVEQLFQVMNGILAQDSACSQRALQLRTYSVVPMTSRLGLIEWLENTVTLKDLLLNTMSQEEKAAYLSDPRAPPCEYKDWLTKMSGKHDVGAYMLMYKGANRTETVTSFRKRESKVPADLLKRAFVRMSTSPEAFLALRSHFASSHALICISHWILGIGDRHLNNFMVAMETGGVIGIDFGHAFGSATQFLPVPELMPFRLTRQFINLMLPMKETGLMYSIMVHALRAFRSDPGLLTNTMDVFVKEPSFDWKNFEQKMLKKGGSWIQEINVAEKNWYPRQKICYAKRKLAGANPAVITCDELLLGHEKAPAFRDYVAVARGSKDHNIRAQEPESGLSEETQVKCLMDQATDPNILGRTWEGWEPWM

Turning to `C[C@H]1COCCN1c1nc(-c2ccc(NC(=O)Nc3ccncc3)cc2)nc2c1CS(=O)(=O)C2` [Example 35, (S)-1-(4-(4-(3-methylmorpholino)-6,6-dioxido-5,7-dihydrothieno[3,4-d]pyrimidin-2-yl)phenyl)-3-(pyridin-4-yl)urea], the IC50 is more than 10 µM in assay [1], less than 100 nM against mTOR and less than 100 nM in assay [2].
For `CCNC(=O)Nc1ccc(-c2nc3c(c(N4CCOC[C@@H]4C)n2)C(C)S(=O)(=O)C3)cc1` (stereo partly drawn) [Example 38, 1-ethyl-3-(4-(5-methyl-4-((S)-3-methylmorpholino)-6,6-dioxido-5,7-dihydrothieno[3,4-d]pyrimidin-2-yl)phenyl)urea], the IC50 against mTOR is less than 100 nM; in assay [3], 158 nM; in assay [2] it was less than 100 nM.
In the case of `CCNC(=O)Nc1ccc(-c2nc3c(c(N4CCOC[C@@H]4C)n2)[C@@H](C)S(=O)(=O)C3)cc1` [Example 39, 1-ethyl-3-(4-((R)-5-methyl-4-((S)-3-methylmorpholino)-6,6-dioxido-5,7-dihydrothieno[3,4-d]pyrimidin-2-yl)phenyl)urea], the IC50 at mTOR was less than 100 nM; in assay [3] it was 100 nM; in assay [2], less than 100 nM.
As for `CCNC(=O)Nc1ccc(-c2nc3c(c(N4CCOC[C@@H]4C)n2)[C@H](C)S(=O)(=O)C3)cc1` [Example 40, 1-ethyl-3-(4-((S)-5-methyl-4-((S)-3-methylmorpholino)-6,6-dioxido-5,7-dihydrothieno[3,4-d]pyrimidin-2-yl)phenyl)urea], the IC50 was less than 100 nM on mTOR, 200 nM in assay [3] and less than 100 nM in assay [2].
For the molecule `CCNC(=O)Nc1ccc(-c2nc(N3CCOC[C@@H]3C)c3c(n2)C(C)(C)S(=O)(=O)C3C)cc1` (stereo partly drawn) [Example 42, 1-ethyl-3-(4-(5,7,7-trimethyl-4-((S)-3-methylmorpholino)-6,6-dioxido-5,7-dihydrothieno[3,4-d]pyrimidin-2-yl)phenyl)urea], the IC50 is less than 100 nM against mTOR, 251 nM in assay [3] and less than 100 nM in assay [2].
As for `CC1c2nc(-c3ccc(NC(=O)NC4CC4)cc3)nc(N3CCOC[C@@H]3C)c2C(C)S1(=O)=O` (stereo partly drawn) [Example 44, 1-cyclopropyl-3-(4-(5,7-dimethyl-4-((S)-3-methylmorpholino)-6,6-dioxido-5,7-dihydrothieno[3,4-d]pyrimidin-2-yl)phenyl)urea], the IC50 was less than 100 nM against mTOR, 39.8 nM in assay [3] and less than 100 nM in assay [2].
`CCCNC(=O)Nc1ccc(-c2nc3c(c(N4CCOC[C@@H]4C)n2)C(C)S(=O)(=O)C3)cc1` (stereo partly drawn) [Example 45, 1-(4-(5-methyl-4-((S)-3-methylmorpholino)-6,6-dioxido-5,7-dihydrothieno[3,4-d]pyrimidin-2-yl)phenyl)-3-propylurea]: the figures for the IC50 (against mTOR; in assay [3]; in assay [2]) were less than 100 nM, 398 nM and less than 100 nM, respectively.
Turning to `CC1c2c(nc(-c3ccc(NC(=O)NCC4CC4)cc3)nc2N2CCOC[C@@H]2C)CS1(=O)=O` (stereo partly drawn) [Example 46, 1-(cyclopropylmethyl)-3-(4-(5-methyl-4-((S)-3-methylmorpholino)-6,6-dioxido-5,7-dihydrothieno[3,4-d]pyrimidin-2-yl)phenyl)urea], the IC50 on mTOR was less than 100 nM; in assay [3] it was 2000 nM; in assay [2], less than 100 nM.
As to `CC1c2c(nc(-c3ccc(NC(=O)NC4CC4)cc3)nc2N2CCOC[C@H]2C)CS1(=O)=O` (stereo partly drawn) [Example 48, 1-cyclopropyl-3-(4-(5-methyl-4-((R)-3-methylmorpholino)-6,6-dioxido-5,7-dihydrothieno[3,4-d]pyrimidin-2-yl)phenyl)urea], the values for the IC50 (against mTOR; in assay [3]; in assay [2]) were less than 100 nM, 79.4 nM and less than 100 nM, respectively.
`CCC1c2c(nc(-c3ccc(NC(=O)NC4CC4)cc3)nc2N2CCOC[C@@H]2C)CS1(=O)=O` (stereo partly drawn) [Example 49, 1-cyclopropyl-3-(4-(5-ethyl-4-((S)-3-methylmorpholino)-6,6-dioxido-5,7-dihydrothieno[3,4-d]pyrimidin-2-yl)phenyl)urea]: the IC50 on mTOR was less than 100 nM; in assay [3] it was 200 nM; in assay [2], less than 100 nM.
Consider `CCNC(=O)Nc1ccc(-c2nc3c(c(N4CCOC[C@@H]4C)n2)C(C)S(=O)(=O)C3)cc1F` (stereo partly drawn) [Example 50, 1-ethyl-3-(2-fluoro-4-(5-methyl-4-((S)-3-methylmorpholino)-6,6-dioxido-5,7-dihydrothieno[3,4-d]pyrimidin-2-yl)phenyl)urea], for which the figures for the IC50 (at mTOR; in assay [3]; in assay [2]) were less than 100 nM, 1000 nM and less than 100 nM, respectively.
For the molecule `C[C@@H]1COCCN1c1nc(-c2ccc(NC(=O)NC3CC3)cc2)nc2c1CS(=O)(=O)C2(C)C` [Example 54, (R)-1-cyclopropyl-3-(4-(7,7-dimethyl-4-(3-methylmorpholino)-6,6-dioxido-5,7-dihydrothieno[3,4-d]pyrimidin-2-yl)phenyl)urea], the IC50 is less than 100 nM at mTOR, 200 nM in assay [3] and less than 100 nM in assay [2].
Regarding `C[C@@H]1COCCN1c1nc(-c2ccc(NC(=O)NC3CC3)cc2)nc2c1[C@H](C)S(=O)(=O)C2` [Example 63, 1-cyclopropyl-3-(4-((S)-5-methyl-4-((R)-3-methylmorpholino)-6,6-dioxido-5,7-dihydrothieno[3,4-d]pyrimidin-2-yl)phenyl)urea], the IC50 was 100 to 1000 nM on mTOR, 251 nM in assay [3] and less than 100 nM in assay [2].
Regarding `CNC(=O)Nc1ccc(-c2nc(N3CCOC[C@@H]3C)c3c(n2)C(C)(C)S(=O)(=O)C3)cc1F` [Example 65, (S)-1-(4-(7,7-dimethyl-4-(3-methylmorpholino)-6,6-dioxido-5,7-dihydrothieno[3,4-d]pyrimidin-2-yl)-2-fluorophenyl)-3-methylurea], the IC50 in assay [1] was more than 10 µM; at mTOR, 100 to 1000 nM; in assay [2], less than 100 nM.
For the molecule `CC1c2c(N3CCOC[C@@H]3C)nc(-c3ccc(NC(=O)NCCF)cc3)nc2C(C)(C)S1(=O)=O` (stereo partly drawn) [Example 75, 1-(2-fluoroethyl)-3-(4-(5,7,7-trimethyl-4-((S)-3-methylmorpholino)-6,6-dioxido-5,7-dihydrothieno[3,4-d]pyrimidin-2-yl)phenyl)urea], the IC50 was less than 100 nM on mTOR, 126 nM in assay [3] and less than 100 nM in assay [2].
